Test results as given in PMC7592892, “Anemarsaponin BII inhibits the activity of CYP3A4, 2D6, and 2E1 with human liver microsomes” (Pharmaceutical Biology, 2020).

How the values were obtained:
[1] = target: T1, CYP3A4 (Homo sapiens, UniProt P08684); assay: CYP3A4 inhibition in pooled human liver microsomes (testosterone 6β-hydroxylation); type: in vitro ADME
T1 construct: marker reactions with specific substrates in human liver microsomes (HLMs); from tissue; host or cells: pooled human liver microsomes
T1 sequence (P08684 whole entry): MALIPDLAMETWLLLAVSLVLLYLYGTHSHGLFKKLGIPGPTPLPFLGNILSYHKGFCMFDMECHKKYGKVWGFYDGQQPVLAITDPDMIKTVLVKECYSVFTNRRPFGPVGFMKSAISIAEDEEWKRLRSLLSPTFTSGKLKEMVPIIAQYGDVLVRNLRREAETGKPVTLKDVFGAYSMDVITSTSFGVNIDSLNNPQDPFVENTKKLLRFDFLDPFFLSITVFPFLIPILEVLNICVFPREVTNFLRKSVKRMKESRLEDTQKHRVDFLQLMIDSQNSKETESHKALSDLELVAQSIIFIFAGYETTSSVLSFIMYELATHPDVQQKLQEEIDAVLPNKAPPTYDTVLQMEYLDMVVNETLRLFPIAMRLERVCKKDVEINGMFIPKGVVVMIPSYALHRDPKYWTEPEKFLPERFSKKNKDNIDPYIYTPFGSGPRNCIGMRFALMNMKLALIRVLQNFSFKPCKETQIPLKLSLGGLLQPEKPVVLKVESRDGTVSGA
Experimental: (§1) The activity of CYP450s was evaluated by the marker reactions with specific substrates in human liver microsomes (HLMs). The reaction conditions are summarized in Table 1 according to previous studies. The concentration of anemarsaponin BII was 100 μM with the following concentration of specific inhibitors: 10 μM furafylline for CYP1A2, 10 μM tranylcypromine for CYP2A6, 1 μM ketoconazole for CYP3A4, 5 μM montelukast for CYP2C8, 10 μM sulfaphenazole for CYP2C9, 50 μM tranylcypromine for CYP2C19, 10 μM quinidine for CYP2D6, 50 μM clomethiazole for CYP2E1. 200 μL incubation system included 100 mM potassium phosphate buffer (pH 7.4), NADPH generating system (1 mM NADP^+, 10 mM glucose-6-phosphate, 1 U/mL of glucose-6-phosphate dehydrogenase, and 4 mM MgCl2), the appropriate concentration of HLMs, a corresponding probe substrate and anemarsaponin BII (or positive inhibitor for different probe reactions). The HADPH-generating system was added before the incubation to preincubate for 3 min at 37 °C. The reaction was terminated with 100 μL acetonitrile (10% trichloroacetic acid for CYP2A6). Then, the mixture was centrifuged at 12,000 rpm for 10 min, and an aliquot (50 μL) of supernatant was transferred for HPLC analysis with the help of the Agilent 1260 series instrument with DAD and FLD detector according to previous studies. The HPLC conditions for analysis of corresponding metabolites of CYP isoforms are summarized in Table 2 based on previous studies (Lang et al. [2017]; Zhang et al. [2017]).
(§2) Incubations were performed in triplicate, and results were represented with the mean value. […]
(§3) The effect of anemarsaponin BII on the activity of CYPs was evaluated in pooled human liver microsomes according to previous studies (Dong et al. [2018]; Wang et al. [2019]). The residual activity of eight CYP isoforms was first detected with 100 μM anemarsaponin BII in HLMs. […]
(§4) The enzyme kinetic parameters for the probe reaction were estimated from the best fit line, using least-squares linear regression of the inverse substrate concentration versus the inverse velocity (Lineweaver–Burk plots), and the mean values were used to calculate Vmax and Km. Inhibition data from the experiments that were conducted using multiple compound concentrations were represented by Dixon plots, and inhibition constant (KI) values were calculated using non-linear regression according to the following equation: Competitive inhibition:v=(VmaxS)/(Km(1+I/KI)+S), Non-competitive inhibition:v=(VmaxS)/[Km+S(1+I/KIKi)] where I is the concentration of the compound, KI is the inhibition constant, S is the concentration of the substrate, and Km is the substrate concentration at half the maximum velocity (Vmax) of the reaction. […]

[2] = target: T2, CYP2D6 (Homo sapiens, UniProt P10635); assay: CYP2D6 inhibition in pooled human liver microsomes (dextromethorphan O-demethylation); type: in vitro ADME
T2 construct: marker reactions with specific substrates in human liver microsomes (HLMs); from tissue; host or cells: pooled human liver microsomes
T2 sequence (P10635 whole entry): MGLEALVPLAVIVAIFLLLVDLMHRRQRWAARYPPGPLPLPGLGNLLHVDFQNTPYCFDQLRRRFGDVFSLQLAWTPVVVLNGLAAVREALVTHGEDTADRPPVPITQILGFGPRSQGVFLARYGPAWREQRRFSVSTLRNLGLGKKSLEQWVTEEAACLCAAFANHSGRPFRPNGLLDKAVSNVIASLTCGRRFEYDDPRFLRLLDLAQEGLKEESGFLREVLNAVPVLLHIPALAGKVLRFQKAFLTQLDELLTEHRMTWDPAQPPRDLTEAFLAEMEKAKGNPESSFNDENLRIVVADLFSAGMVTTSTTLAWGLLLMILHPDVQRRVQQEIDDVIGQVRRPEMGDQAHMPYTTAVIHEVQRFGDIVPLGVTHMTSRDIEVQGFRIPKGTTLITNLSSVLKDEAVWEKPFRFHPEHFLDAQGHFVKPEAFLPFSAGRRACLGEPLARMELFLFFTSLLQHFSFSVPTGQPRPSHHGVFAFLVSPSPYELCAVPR
Experimental: as §1, §2, §3, §4

[3] = target: T3, CYP2E1 (Homo sapiens, UniProt P05181); assay: CYP2E1 inhibition in pooled human liver microsomes (chlorzoxazone 6-hydroxylation); type: in vitro ADME; settings: for IC50: 0-100 μM anemarsaponin BII
T3 construct: marker reactions with specific substrates in human liver microsomes (HLMs); from tissue; host or cells: pooled human liver microsomes
T3 sequence (P05181 whole entry): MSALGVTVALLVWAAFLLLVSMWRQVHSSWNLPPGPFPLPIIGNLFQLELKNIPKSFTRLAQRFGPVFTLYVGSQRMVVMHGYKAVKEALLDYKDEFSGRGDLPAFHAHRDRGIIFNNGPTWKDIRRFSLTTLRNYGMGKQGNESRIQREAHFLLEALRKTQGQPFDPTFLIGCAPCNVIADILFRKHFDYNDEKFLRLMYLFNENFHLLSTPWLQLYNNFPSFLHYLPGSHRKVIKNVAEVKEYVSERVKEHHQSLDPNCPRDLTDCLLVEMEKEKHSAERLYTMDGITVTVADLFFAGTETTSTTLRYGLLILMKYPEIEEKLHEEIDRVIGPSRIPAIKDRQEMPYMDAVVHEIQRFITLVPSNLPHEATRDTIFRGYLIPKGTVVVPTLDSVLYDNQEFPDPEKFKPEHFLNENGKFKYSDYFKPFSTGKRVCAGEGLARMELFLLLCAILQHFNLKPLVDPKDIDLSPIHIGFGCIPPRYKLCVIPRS
Experimental: as §1
Incubations were performed in triplicate, and results were represented with the mean value. The final microsomal protein concentration and incubation times for the different probe reactions are summarized in Table 1 based on previous studies (Lang et al. [2017]; Wang et al. [2019]).
The effect of anemarsaponin BII on the activity of CYPs was evaluated in pooled human liver microsomes according to previous studies (Dong et al. [2018]; Wang et al. [2019]). The residual activity of eight CYP isoforms was first detected with 100 μM anemarsaponin BII in HLMs. Next, CYPs of which the activity was inhibited by anemarsaponin BII was incubated with 0, 2.5, 5, 10, 25, 50 and 100 μM anemarsaponin BII to explore the values of half inhibition concentration (IC50). Additionally, 0–50 μM anemarsaponin BII was incubated with various concentration of probe substrates (20–100 μM testosterone for CYP3A4, 10–50 μM dextromethorphan for CYP2D6, and 25–250 μM chlorzoxazone for CYP2E1) to obtain the values of KI.
as §4, with “reaction. The mechanism of the inhibition was inspected using the Lineweaver–Burk plots and the enzyme inhibition models.” for “reaction.”

[4] = target: T1, CYP3A4; assay: Time-dependent inhibition of CYP3A4 in HLMs; type: in vitro ADME
Experimental: (§5) The effect of incubation time on the inhibition of anemarsaponin BII was evaluated with 20 μM anemarsaponin BII. HLMs were preincubated with anemarsaponin BII and the NADPH-generating system for 30 min at 37 °C. Then, an aliquot (20 μL) was transferred to another incubation tube (final volume 200 μL) containing an NADPH-generating system and probe substrates, of which final concentrations were approximate to Km. After incubating for 0, 5, 10, 15 and 30 min, the reaction was terminated with 100 μL acetonitrile internal standard mix and placed on ice. The metabolites were analyzed by HPLC. To obtain the values of KI and Kinact, another incubation with a higher concentration of substrates (approximately 4-fold Km values) was performed in the presence of 0–50 μM anemarsaponin BII for 0, 5, 10, 15 and 30 min.

[5] = target: T2, CYP2D6; assay: Time-dependent inhibition of CYP2D6 in HLMs; type: in vitro ADME; settings: 20 μM anemarsaponin BII, data not shown
Experimental: as §5

[6] = target: T3, CYP2E1; assay: Time-dependent inhibition of CYP2E1 in HLMs; type: in vitro ADME; settings: 20 μM anemarsaponin BII, data not shown
Experimental: as §5

[7] = tested on: T4, CYP1A2; type: in vitro ADME; settings: human, microsomes, 100 μM, pH 7.4
T4 construct: marker reactions with specific substrates in human liver microsomes (HLMs); from tissue; host or cells: pooled human liver microsomes
Experimental: as §1, with “[2017]). Incubations were performed in triplicate, and results were represented with the mean value. The final microsomal protein concentration and incubation times for the different probe reactions are summarized in Table 1 based on previous studies (Lang et al. [2017]; Wang et al. [2019]). The effect of anemarsaponin BII on the activity of CYPs was evaluated in pooled human liver microsomes according to previous studies (Dong et al. [2018]; Wang et al. [2019]). The residual activity of eight CYP isoforms was first detected with 100 μM anemarsaponin BII in HLMs. Next, CYPs of which the activity was inhibited by anemarsaponin BII was incubated with 0, 2.5, 5, 10, 25, 50 and 100 μM anemarsaponin BII to explore the values of half inhibition concentration (IC50). Additionally, 0–50 μM anemarsaponin BII was incubated with various concentration of probe substrates (20–100 μM testosterone for CYP3A4, 10–50 μM dextromethorphan for CYP2D6, and 25–250 μM chlorzoxazone for CYP2E1) to obtain the values of KI.” for “[2017]).”

[8] = tested on: T5, CYP2A6; type: in vitro ADME; settings: human, microsomes, 100 μM, pH 7.4
T5 construct: marker reactions with specific substrates in human liver microsomes (HLMs); from tissue; host or cells: pooled human liver microsomes
Experimental: as §1, with “[2017]). Incubations were performed in triplicate, and results were represented with the mean value. The final microsomal protein concentration and incubation times for the different probe reactions are summarized in Table 1 based on previous studies (Lang et al. [2017]; Wang et al. [2019]). The effect of anemarsaponin BII on the activity of CYPs was evaluated in pooled human liver microsomes according to previous studies (Dong et al. [2018]; Wang et al. [2019]). The residual activity of eight CYP isoforms was first detected with 100 μM anemarsaponin BII in HLMs. Next, CYPs of which the activity was inhibited by anemarsaponin BII was incubated with 0, 2.5, 5, 10, 25, 50 and 100 μM anemarsaponin BII to explore the values of half inhibition concentration (IC50). Additionally, 0–50 μM anemarsaponin BII was incubated with various concentration of probe substrates (20–100 μM testosterone for CYP3A4, 10–50 μM dextromethorphan for CYP2D6, and 25–250 μM chlorzoxazone for CYP2E1) to obtain the values of KI.” for “[2017]).”

[9] = tested on: T6, CYP2C19; type: in vitro ADME; settings: human, microsomes, 100 μM, pH 7.4
T6 construct: marker reactions with specific substrates in human liver microsomes (HLMs); from tissue; host or cells: pooled human liver microsomes
Experimental: as §1, with “[2017]). Incubations were performed in triplicate, and results were represented with the mean value. The final microsomal protein concentration and incubation times for the different probe reactions are summarized in Table 1 based on previous studies (Lang et al. [2017]; Wang et al. [2019]). The effect of anemarsaponin BII on the activity of CYPs was evaluated in pooled human liver microsomes according to previous studies (Dong et al. [2018]; Wang et al. [2019]). The residual activity of eight CYP isoforms was first detected with 100 μM anemarsaponin BII in HLMs. Next, CYPs of which the activity was inhibited by anemarsaponin BII was incubated with 0, 2.5, 5, 10, 25, 50 and 100 μM anemarsaponin BII to explore the values of half inhibition concentration (IC50). Additionally, 0–50 μM anemarsaponin BII was incubated with various concentration of probe substrates (20–100 μM testosterone for CYP3A4, 10–50 μM dextromethorphan for CYP2D6, and 25–250 μM chlorzoxazone for CYP2E1) to obtain the values of KI.” for “[2017]).”

[10] = tested on: T7, CYP2C8; type: in vitro ADME; settings: human, microsomes, 100 μM, pH 7.4
T7 construct: marker reactions with specific substrates in human liver microsomes (HLMs); from tissue; host or cells: pooled human liver microsomes
Experimental: as §1, with “[2017]). Incubations were performed in triplicate, and results were represented with the mean value. The final microsomal protein concentration and incubation times for the different probe reactions are summarized in Table 1 based on previous studies (Lang et al. [2017]; Wang et al. [2019]). The effect of anemarsaponin BII on the activity of CYPs was evaluated in pooled human liver microsomes according to previous studies (Dong et al. [2018]; Wang et al. [2019]). The residual activity of eight CYP isoforms was first detected with 100 μM anemarsaponin BII in HLMs. Next, CYPs of which the activity was inhibited by anemarsaponin BII was incubated with 0, 2.5, 5, 10, 25, 50 and 100 μM anemarsaponin BII to explore the values of half inhibition concentration (IC50). Additionally, 0–50 μM anemarsaponin BII was incubated with various concentration of probe substrates (20–100 μM testosterone for CYP3A4, 10–50 μM dextromethorphan for CYP2D6, and 25–250 μM chlorzoxazone for CYP2E1) to obtain the values of KI.” for “[2017]).”

[11] = tested on: T8, CYP2C9; type: in vitro ADME; settings: human, microsomes, 100 μM, pH 7.4
T8 construct: marker reactions with specific substrates in human liver microsomes (HLMs); from tissue; host or cells: pooled human liver microsomes
Experimental: as §1, with “[2017]). Incubations were performed in triplicate, and results were represented with the mean value. The final microsomal protein concentration and incubation times for the different probe reactions are summarized in Table 1 based on previous studies (Lang et al. [2017]; Wang et al. [2019]). The effect of anemarsaponin BII on the activity of CYPs was evaluated in pooled human liver microsomes according to previous studies (Dong et al. [2018]; Wang et al. [2019]). The residual activity of eight CYP isoforms was first detected with 100 μM anemarsaponin BII in HLMs. Next, CYPs of which the activity was inhibited by anemarsaponin BII was incubated with 0, 2.5, 5, 10, 25, 50 and 100 μM anemarsaponin BII to explore the values of half inhibition concentration (IC50). Additionally, 0–50 μM anemarsaponin BII was incubated with various concentration of probe substrates (20–100 μM testosterone for CYP3A4, 10–50 μM dextromethorphan for CYP2D6, and 25–250 μM chlorzoxazone for CYP2E1) to obtain the values of KI.” for “[2017]).”

[12] = rat, in vivo; cited from earlier work
[13] = rat, in vivo, 171.61 mg/kg; cited from earlier work
[14] = 100 μM anemarsaponin BII, residual activity
[15] = HLMs, 0-100 μM anemarsaponin BII

CC(CCC1(O)OC2CC3C4CCC5CC(OC6OC(CO)C(O)C(O)C6OC6OC(CO)C(O)C(O)C6O)CCC5(C)C4CCC3(C)C2C1C)COC1OC(CO)C(O)C(O)C1O (stereo not shown) [anemarsaponin BII, Anemarsaponin BII]
activity of CYP3A4 decreased to (relative to untreated HLMs) [1, 14]: 15.65% | inhibition model CYP3A4 (Lineweaver–Burk) ([1]; HLMs): non-competitive | IC50 [1, 15]: 13.7 µM | Ki ([1]; HLMs, 20–100 μM testosterone, non-competitive model): 6.72 µM | activity of CYP2D6 decreased to (relative to untreated HLMs) [2, 14]: 18.79% | inhibition model CYP2D6 (Lineweaver–Burk) ([2]; HLMs): competitive | IC50 [2, 15]: 16.3 µM | Ki ([2]; HLMs, 10–50 μM dextromethorphan, competitive model): 8.26 µM | activity of CYP2E1 decreased to (relative to untreated HLMs) [3, 14]: 23.45% | inhibition model CYP2E1 (Lineweaver–Burk) ([3]; HLMs): competitive | IC50 ([3]; HLMs): 19.7 µM | Ki ([3]; HLMs, 25–250 μM chlorzoxazone, competitive model): 9.82 µM | IC50 ([3]; human, pooled human liver microsomes, pH 7.4, probe chlorzoxazone (6-hydroxylation), HLMs): 19.3 µM | effect of incubation time on inhibition of CYP3A4 ([4]; 20 μM anemarsaponin BII): increased with the incubation time | kinact ([4]; human, human liver microsomes, NADPH, 0–50 μM anemarsaponin BII, 0-30 min, non-linear regression): 0.000883 s⁻¹ | effect of incubation time on inhibition of CYP2D6 [5]: not affected by the incubation time | effect of incubation time on inhibition of CYP2E1 [6]: not affected by the incubation time | effect on activity of CYP1A2 [7]: only the activity of CYP3A4, 2D6 and 2E1 was significantly inhibited | effect on activity of CYP2A6 [8]: only the activity of CYP3A4, 2D6 and 2E1 was significantly inhibited | effect on activity of CYP2C19 [9]: only the activity of CYP3A4, 2D6 and 2E1 was significantly inhibited | effect on activity of CYP2C8 [10]: only the activity of CYP3A4, 2D6 and 2E1 was significantly inhibited | effect on activity of CYP2C9 [11]: only the activity of CYP3A4, 2D6 and 2E1 was significantly inhibited | half-life (t1/2) [12]: 2.7 h | Cmax [13]: 271.22 ng/mL | t1/2 [13]: 3.21 h
